From PubChem BioAssay AID248 (DTP/NCI, 2004)
Values joined by “and” are separate entries in the source; they are usually repeats but may differ in a detail not shown here. Equal entries are not always repeated. Toxic doses and inconclusive results are not listed.

Test system: L1210 leukemia ip in BDF1 mice, survival T/C
Experiment: NCI In Vivo Anticancer Drug Screen. Data for tumor model L1210 Leukemia (intraperitoneal) in B6D2F1 (BDF1) mice
Conditions: endpoint: mean survival time, higher = longer survival
How it was run: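 Transplantable tumor model; survival measured in treated vs vehicle control mice. Value = treated/control.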

[1] = dose: 100.0 mg/kg/injection, schedule: Q01DX001 (ip), vehicle: saline
[2] = dose: 50.0 mg/kg/injection, schedule: Q01DX001 (ip), vehicle: Klucel (hydroxypropylcellulose) (HPC)
[3] = dose: 100.0 mg/kg/injection, schedule: Q01DX001 (ip), vehicle: Klucel (hydroxypropylcellulose) (HPC)
[4] = dose: 200.0 mg/kg/injection, schedule: Q01DX001 (ip), vehicle: Klucel (hydroxypropylcellulose) (HPC)
[5] = dose: 100.0 mg/kg/injection, schedule: Q01DX009 (ip), vehicle: Klucel (hydroxypropylcellulose) (HPC)
[6] = dose: 200.0 mg/kg/injection, schedule: Q01DX009 (ip), vehicle: Klucel (hydroxypropylcellulose) (HPC)
[7] = dose: 100.0 mg/kg/injection, schedule: Q04DX002 (ip), vehicle: Klucel (hydroxypropylcellulose) (HPC)
[8] = dose: 200.0 mg/kg/injection, schedule: Q04DX002 (ip), vehicle: Klucel (hydroxypropylcellulose) (HPC)
[9] = dose: 400.0 mg/kg/injection, schedule: Q04DX002 (ip), vehicle: Klucel (hydroxypropylcellulose) (HPC)

CC(C)(C)NCCCN1CC1(C)C (stereo not drawn)
T/C (dose: 6.25 mg/kg/injection, schedule: Q01DX009 (ip), vehicle: saline): 90 % of control | T/C (dose: 6.25 mg/kg/injection, schedule: Q04DX003 (ip), vehicle: saline): 103 % of control | T/C (dose: 12.5 mg/kg/injection, schedule: Q01DX009 (ip), vehicle: saline): 93 % of control | T/C (dose: 12.5 mg/kg/injection, schedule: Q04DX003 (ip), vehicle: saline): 114 % of control | T/C (dose: 25.0 mg/kg/injection, schedule: Q01DX009 (ip), vehicle: saline): 93 % of control and 121 % of control | T/C (dose: 25.0 mg/kg/injection, schedule: Q04DX003 (ip), vehicle: saline): 117 % of control | T/C [1]: 110 % of control

CCC1(C)CC1(Cl)Cl (stereo not drawn)
T/C (dose: 100.0 mg/kg/injection, schedule: Q04DX003 (ip), vehicle: other): 105 % of control | T/C (dose: 200.0 mg/kg/injection, schedule: Q04DX003 (ip), vehicle: other): 102 % of control | T/C (dose: 400.0 mg/kg/injection, schedule: Q04DX003 (ip), vehicle: other): 100 % of control

COc1ccc(/C=C(/C)[N+](=O)[O-])cc1OC
T/C [2]: 98 % of control | T/C (dose: 50.0 mg/kg/injection, schedule: Q01DX009 (ip), vehicle: saline with Tween-80): 91 % of control | T/C [3]: 94 % of control | T/C [1]: 93 % of control | T/C (dose: 100.0 mg/kg/injection, schedule: Q01DX009 (ip), vehicle: saline with Tween-80): 115 % of control | T/C (dose: 100.0 mg/kg/injection, schedule: Q04DX003 (ip), vehicle: Klucel (hydroxypropylcellulose) (HPC)): 97 % of control | T/C [4]: 103 % of control | T/C (dose: 200.0 mg/kg/injection, schedule: Q01DX009 (ip), vehicle: saline with Tween-80): 100 % of control | T/C (dose: 200.0 mg/kg/injection, schedule: Q04DX003 (ip), vehicle: Klucel (hydroxypropylcellulose) (HPC)): 102 % of control | T/C (dose: 400.0 mg/kg/injection, schedule: Q01DX001 (ip), vehicle: saline): 98 % of control | T/C (dose: 400.0 mg/kg/injection, schedule: Q04DX003 (ip), vehicle: Klucel (hydroxypropylcellulose) (HPC)): 97 % of control

O=C(Nc1cccc(Cl)c1)Oc1ccc(Cl)cc1Cl
T/C (dose: 100.0 mg/kg/injection, schedule: Q04DX002 (ip), vehicle: saline with Tween-80): 96 % of control | T/C (dose: 200.0 mg/kg/injection, schedule: Q04DX002 (ip), vehicle: saline with Tween-80): 100 % of control

COc1cc(NC(=O)N(CCCl)N=O)cc(OC)c1OC
T/C (dose: 0.12 mg/kg/injection, schedule: Q01DX009 (ip), vehicle: saline): 105 % of control | T/C (dose: 0.25 mg/kg/injection, schedule: Q01DX009 (ip), vehicle: saline): 118 % of control | T/C (dose: 0.5 mg/kg/injection, schedule: Q01DX009 (ip), vehicle: saline): 112 % of control | T/C (dose: 1.0 mg/kg/injection, schedule: Q01DX009 (ip), vehicle: saline): 115 % of control | T/C (dose: 1.5 mg/kg/injection, schedule: Q01DX001 (ip), vehicle: carboxymethylcellulose (CMC)): 111 % of control | T/C (dose: 2.5 mg/kg/injection, schedule: Q01DX009 (ip), vehicle: saline): 161 % of control | T/C (dose: 3.0 mg/kg/injection, schedule: Q01DX001 (ip), vehicle: carboxymethylcellulose (CMC)): 108 % of control | T/C (dose: 5.0 mg/kg/injection, schedule: Q01DX009 (ip), vehicle: saline): 177 % of control | T/C (dose: 6.0 mg/kg/injection, schedule: Q01DX001 (ip), vehicle: carboxymethylcellulose (CMC)): 118 % of control | T/C (dose: 10.0 mg/kg/injection, schedule: Q01DX009 (ip), vehicle: saline): 164 % of control | T/C (dose: 11.0 mg/kg/injection, schedule: Q01DX009 (ip), vehicle: saline with Tween-80): 157 % of control and 216 % of control | T/C (dose: 12.0 mg/kg/injection, schedule: Q01DX001 (ip), vehicle: carboxymethylcellulose (CMC)): 151 % of control | T/C (dose: 15.0 mg/kg/injection, schedule: Q01DX009 (ip), vehicle: saline): 164 % of control | T/C (dose: 16.6 mg/kg/injection, schedule: Q01DX009 (ip), vehicle: saline with Tween-80): 223 % of control | T/C (dose: 22.0 mg/kg/injection, schedule: Q01DX009 (ip), vehicle: saline): 216 % of control | T/C (dose: 25.0 mg/kg/injection, schedule: Q01DX001 (ip), vehicle: carboxymethylcellulose (CMC)): 252 % of control | T/C (dose: 25.0 mg/kg/injection, schedule: Q01DX001 (ip), vehicle: saline): 155 % of control | T/C (dose: 25.0 mg/kg/injection, schedule: Q01DX009 (ip), vehicle: saline with Tween-80): 208 % of control | T/C (dose: 33.0 mg/kg/injection, schedule: Q01DX009 (ip), vehicle: saline): 178 % of control | T/C (dose: 37.5 mg/kg/injection, schedule: Q01DX001 (ip), vehicle: saline): 153 % of control | T/C (dose: 37.5 mg/kg/injection, schedule: Q01DX009 (ip), vehicle: saline with Tween-80): 110 % of control | T/C (dose: 50.0 mg/kg/injection, schedule: Q01DX001 (ip), vehicle: carboxymethylcellulose (CMC)): 106 % of control | T/C (dose: 50.0 mg/kg/injection, schedule: Q01DX009 (ip), vehicle: saline): 260 % of control | T/C (dose: 75.0 mg/kg/injection, schedule: Q01DX001 (ip), vehicle: carboxymethylcellulose (CMC)): 236 % of control | T/C (dose: 75.0 mg/kg/injection, schedule: Q01DX009 (ip), vehicle: saline): 173 % of control

CCCNP(=S)(NCCC)NCCC
T/C (dose: 50.0 mg/kg/injection, schedule: Q01DX001 (ip), vehicle: other): 96 % of control | T/C (dose: 100.0 mg/kg/injection, schedule: Q01DX001 (ip), vehicle: other): 100 % of control | T/C (dose: 200.0 mg/kg/injection, schedule: Q01DX001 (ip), vehicle: other): 105 % of control | T/C (dose: 400.0 mg/kg/injection, schedule: Q01DX001 (ip), vehicle: other): 100 % of control

Nc1ccc([N+](=O)[O-])cc1N=C/C=C/c1ccccc1
T/C (dose: 50.0 mg/kg/injection, schedule: Q01DX009 (ip), vehicle: Klucel (hydroxypropylcellulose) (HPC)): 101 % of control | T/C [5]: 96 % of control | T/C [6]: 92 % of control

CC1Cc2c(cccc2[N+](=O)[O-])C1=O (stereo not drawn)
T/C (dose: 100.0 mg/kg/injection, schedule: Q04DX003 (ip), vehicle: saline with Tween-80): 101 % of control | T/C (dose: 200.0 mg/kg/injection, schedule: Q04DX003 (ip), vehicle: saline with Tween-80): 96 % of control | T/C (dose: 400.0 mg/kg/injection, schedule: Q04DX003 (ip), vehicle: saline with Tween-80): 107 % of control

COc1cc([N+](=O)[O-])ccc1NC(=O)Nc1ccc(Cl)cc1[N+](=O)[O-]
T/C [5]: 100 % of control | T/C [6]: 95 % of control | T/C (dose: 400.0 mg/kg/injection, schedule: Q01DX009 (ip), vehicle: Klucel (hydroxypropylcellulose) (HPC)): 90 % of control

Cc1ccc(SCCN=C(N)CSS(=O)(=O)O)cc1
T/C (dose: 12.5 mg/kg/injection, schedule: Q01DX009 (ip), vehicle: Klucel (hydroxypropylcellulose) (HPC)): 94 % of control | T/C (dose: 25.0 mg/kg/injection, schedule: Q01DX009 (ip), vehicle: Klucel (hydroxypropylcellulose) (HPC)): 107 % of control | T/C [7]: 92 % of control | T/C [8]: 101 % of control | T/C [9]: 92 % of control

CC(O)C(O)C1OC(=O)C1O (stereo not drawn)
T/C (dose: 100.0 mg/kg/injection, schedule: Q01DX009 (ip), vehicle: saline): 94 % of control and 98 % of control | T/C (dose: 200.0 mg/kg/injection, schedule: Q01DX009 (ip), vehicle: saline): 100 % of control and 113 % of control | T/C (dose: 400.0 mg/kg/injection, schedule: Q01DX009 (ip), vehicle: saline): 104 % of control and 94 % of control

COc1ccc(OC)c(C(=O)CSC(=S)OC(C)C)c1
T/C [7]: 96 % of control | T/C [8]: 92 % of control | T/C [9]: 96 % of control

C=CCCC1(Cc2ccccc2)C(=O)NC(=O)NC1=O
T/C (dose: 75.0 mg/kg/injection, schedule: Q01DX001 (ip), vehicle: saline): 97 % of control | T/C (dose: 150.0 mg/kg/injection, schedule: Q01DX001 (ip), vehicle: saline): 97 % of control

Nc1ncnc2c1c(-c1nc(=S)[nH][nH]1)cn2C1OC(CO)C(O)C1O (stereo not drawn)
T/C (dose: 100.0 mg/kg/injection, schedule: Q01DX005 (ip), vehicle: saline): 106 % of control | T/C (dose: 200.0 mg/kg/injection, schedule: Q01DX005 (ip), vehicle: saline): 108 % of control

Cc1cccc2c1NC(c1ccccc1)C(C)S2(=O)=O (stereo not drawn)
T/C [2]: 106 % of control | T/C [3]: 96 % of control | T/C [4]: 102 % of control | T/C (dose: 400.0 mg/kg/injection, schedule: Q01DX001 (ip), vehicle: Klucel (hydroxypropylcellulose) (HPC)): 96 % of control

NC(=S)N/N=C\c1ccc(/C=N/NC(N)=S)cc1
T/C (dose: 50.0 mg/kg/injection, schedule: Q01DX001 (ip), vehicle: saline): 90 % of control | T/C [1]: 93 % of control | T/C (dose: 200.0 mg/kg/injection, schedule: Q01DX001 (ip), vehicle: saline): 90 % of control
